Patent US9446147B2, “Membrane stabilizing compositions and methods” (The Ohio State University, priority 2011, dated 2016)

Legend:
[1] = lyophilization and rehydration of calcein-loaded LUVs (contents loss, DLS, cryo-TEM); assay type: physicochemical; settings: used in place of cholesterol glycopolymer 8 in DPPC or hydrogenated ePC LUVs
Procedure: (§1) The anhydrobiotic membrane preservation properties of the trehalose polymers on supported lipid bilayers (SLBs) were tested. […] Moreover, lyophilized calcein-loaded trehalose-polymer vesicles could be rehydrated without contents loss and maintenance of vesicle size distribution. The cryo-preservative effects of trehalose and other sugars on proteins and membrane structures has been known for some time, though high solution concentrations are required; here we find that preservative properties at mole ratios of about 10% to about 30%. This preservative property permits long-term anhydrous storage of reagents without compromising therapeutic effect. Thus, membrane-anchored polysaccharides may be a useful biotechnology tool for production of systemic drug carriers that are stable to attack from serum proteins, dehydration and freeze-drying.
Sugar solutions (10:1 sugar:lipid) are known to protect LUVs from contents loss and fusion upon lyophilization and rehydration. It was find that covalent presentation of polymeric trehalose on multiple lipid anchors confers significant membrane anhydrobiotic and cryo-protection at sugar:lipid ratios of 0.1-0.3. […] LUVs containing phospholipid glycodimer 7 and phospholipid glycopolymer 9 readily deposited, possibly by virtue of higher membrane fluidity.

[2] = dehydration-rehydration of supported lipid bilayers (SLBs), microscopy and FRAP; assay type: physicochemical; settings: supported lipid bilayers on glass
Procedure: as §1
FIGS. 10A and 10B are photomicrographs of supported lipid bilayers containing (A) phospholipid dimer 7 or (B) phospholipid polymer. The mole percent is as indicated. The top rows of (A) and (B) show freshly formed SLBs; whereas the bottom rows show SLBs after drying and rehydration. The photos were taken at 10× magnification and the scale bar is 100 μm. FIGS. 10C and 10D show FRAP containing SLBs with 10% phospholipid polymer before and after dehydration, respectively. These photos were taken at 40× magnification and the scale bar is 40 μm.

[3] = contents release assay of calcein-loaded vesicles in fetal bovine serum; assay type: in vitro ADME; settings: vesicles of 80% DPPC and 20% dimer
Source text: […] Vesicle stabilization by the glycolipid derivatives was strongly affected by degree of oligomerization and solubility. […] Though there is clearly an advantage to structures larger than a dimer, larger oligomer or polymers may be limited by their ability to incorporate into the lipid membrane. Thus, it was difficult to achieve mole percent incorporation levels higher than 10% for phospholipid glycopolymer 9 and 30% for cholesterol glycopolymer 8.

| Molecule | contents loss and fusion after lyophilization and rehydration [1] | protection of SLBs from delamination on drying/rehydration [2] | contents loss upon exposure to serum [3] |
| --- | --- | --- | --- |
| CC(C)CCC[C@@H](C)[C@H]1CC[C@H]2[C@@H]3CC=C4C[C@@H](O)CC[C@]4(C)[C@H]3CC[C@]12C [cholesterol] | total contents loss and extensive fusion |  |  |
| trehalose cholesterol thioglycolate thioether dimer |  | protect supported lipid bilayers from delamination upon drying | greatly minimized |
